Results on 5 compounds are retold here after US7919459B2, “Use of C5a receptor antagonist in the treatment of fibrosis” (Promics Pty Limited, priority 2002, dated 2011).

The test system of test [1] is bleomycin-instilled male Wistar rats. The experiment in a line: Hydroxyproline assay of lung, bleomycin-induced pulmonary fibrosis. In kind it is in vivo, rat. As to conditions: 18 days after bleomycin instillation. Here is the method: (§1) The data was analysed using the program “Sion Image”.
Hydroxyproline assay was performed by the method of Christensen et al 1 (2000). Lung tissue was excised, trimmed free of surrounding conducting airways, and homogenized in 2 mls saline. A 1 ml aliquot of lung homogenate was hydrolysed in 6N HCl (0.5 ml of homogenate and 0.5 ml of 12N HCl) at 110° C. for 12 hours; 50 μl aliquots were added to 1 ml of 14% chloramine T, 10% n-propanol, and 0.5M sodium acetate, pH 6.0. After 20 min at 22° C., 1 ml of Ehrlich's solution (1M p-dimethylaminobenzaldehyde in 70% n-propanol and 20% perchloric acid) was added and allowed to incubate at 65° C. for 15 min. Absorbance was measured at 550 nm, and the amount of hydroxyproline was determined against a standard curve generated with the use of known concentrations of reagent-grade hydroxyproline.

Test [2] has the same test system. The experiment in a line: Picro Sirius Red (PR) staining for collagen in lung, bleomycin-induced pulmonary fibrosis. In kind it is in vivo, rat. As to conditions: 18 days after bleomycin, individual rats, n = 3-4. Here is the method:
as §1

The test system is the same in test [3]. The test can be described thus: Bleomycin-induced pulmonary fibrosis in rats: lung and body weight, histology, collagen deposition. As to conditions: for collagen deposition in lung: acute lung inflammation; for Body weight / Left lung weight / Ratio (lung weight to body weight): 7-9 days after intra-tracheal bleomycin, PMX53 10 mg/kg p.o. daily.
Description: Male Wistar rats, 6 weeks of age, were used. The rats were divided into 5 groups:
Group 1: bleomycin instillation only (n=9)
Group 2: saline instillation only (n=3)
Group 5: Untreated rats maintained in the same environment as the other groups (n=3).
Drug-treated rats were given drug for 3 days before bleomycin administration.
One intra-tracheal instillation of bleomycin at a dose of 0.5 mg/100 g (0.7 U/100 g) in 200 μl of saline was performed on Day 1, as described by Taylor et al., (2002). Rats were anaesthetized by inhalation of 5% or less halothane via a vaporizer. After a local spray of Xylocalne to prevent airway spasm, the rats were intubated and a slow injection of bleomycin or sline control was completed. The rats were then rotated gently for about 1-2 minutes to allow the solution to diffuse evenly into both lungs (Christensen et al 2000). Rats were kept in the fume cupboard until totally recovered, and then monitored for up to 18 days. Body weight, food and water intake, and respiration were monitored daily.
Respiration was elevated as follows: Score 0, normal respiration; Score 1, increased rate of breathing; and Score 2, mouth open respiration. Rats were euthanased before the end of the experimental period, if they consistently lost more than 10% bodyweight for 48 hours, had Score 2 respiration or had Score 1 respiration for 48 hours.
At the end of this period the rats were killed by exsanguination under anaesthesia, so that the lungs were clear of blood. For each rat, the left lung was immediately frozen in liquid nitrogen and stored at −20° C. for quantitative collagen analysis using hydroxyproline assay. The right lung was fully inflated and fixed with 10% formulated formalin by airway gravity fixation at a pressure of 30 cm water for 1 minute. Haematoxylin and eosin (H&E) and Picro Sirius Red (PR) staining for collagen were performed to assess collagen deposition in the lung. For quantitation of collagen stained with PR, polarized light images were converted to grey scale, and the total number of white pixels (specific for collagen) per image was determined as a percentage of the total pixel area. The procedure was applied to a total of four fields in the alveolar area and two fields in the peribronchial area and blood vessels per sample (Wang et al, 2000). The largest lobe of the right lung (from 4 lobes) in each rat was chosen. The data was analysed using the program “Sion Image”.
Data were compiled as the means±SE in the study. Tests of significance were obtained by ANOVA followed by Student-Newman-Keuls post analysis.
Test [4] deals with streptozotocin-induced diabetes in rats. As to conditions: streptozotocin-induced diabetes in rats (Miric G, et al., 2001); cited from earlier work.
The subject of test [5] is L-NAME-treated male Wistar rats. The experiment in a line: Collagen distribution and inflammatory cells in heart and kidney sections (picrosirius red image analysis), L-NAME rats. The class given is in vivo, rat. The protocol:
Collagen deposition was measured by image analysis using laser confocal microscopy of picrosirius red-stained cardiac slices, as described below. […] The stained sections were analyzed with an Image Pro plus analysis program using an Olympus BH2 microscope, with results expressed as a percentage of red area in each screen. At least 4 areas were examine in each heart.

Test [6] has the same test system. The experiment in a line: Isolated Langendorff heart preparation (diastolic stiffness), L-NAME rats. The class given is in vivo, rat. The protocol: The Langendorff isolated heart preparation was used to determine the diastolic stiffness of the left ventricles ex vivo. […] To assess myocardial stiffness in isolated Langendorff hearts, stress (σ, dyne/cm2) and tangent elastic modulus (E, dyne/cm2) for the […] equator of the left ventricle were calculated by assuming spherical geometry of the ventricle and considering the […] equatorial region as representative of the remaining myocardium: […] Myocardial diastolic stiffness is calculated as the diastolic stiffness constant (k, dimensionless), the slope of the linear relation between E and σ (Mirsky and […], 1973). To assess contractile function, maximal +dP/dt was calculated at a diastolic pressure of 5 mmHg. […] The negative log EC50 of the increase in either force of contraction in mN or rate of contraction in beats/min was determined from the concentration giving half-maximal responses in individual concentration-response curves. Renal function results were corrected for kidney wet weight measured at the end of the experiment.

For test [7] the test system is unchanged. The experiment in a line: Echocardiographic analysis of cardiac function, L-NAME rats. The class given is in vivo, rat. Here is the method: After 4 weeks of L-NAME treatment, heart function was determined in vivo by echocardiography and in vitro using the isolated Langendorff heart preparation described below. Collagen deposition was measured by image analysis using laser confocal microscopy of picrosirius red-stained cardiac slices, as described below.
Cardiac function was estimated in vivo using echocardiography, using conventional methods.

For test [8] the test system is unchanged. The experiment in a line: L-NAME-induced hypertension/cardiac fibrosis in rats: intake, growth, tail-cuff blood pressure, organ weights. The class given is in vivo, rat. Here is the method:
Male Wistar rats (8 weeks old) were obtained from the Central Animal Breeding House of The University of Queensland.
This agent was administered at a dosage of 1 mg/kg/day orally for 4 days before rats were additionally treated with nitro-L-arginine methyl ester (L-NAME) for 4 weeks, i.e. a total duration of treatment of antagonist of 32 days. L-NAME administration produces hypertension and cardiac remodelling as a result of inhibition of the production of nitric oxide (NO).
L-NAME was administered at a concentration of 400 mg/l in the drinking water for 4 weeks to give a mean daily intake of 18.7±0.4 mg L-NAME (41.4±0.8 mg/kg mean body weight). Body weight and food and water intakes were measured daily.
Systolic blood pressure was measured in selected unanaesthetised rats, using a tail-cuff method.

The mark [9] stands for this setting: L-NAME rats + PMX53 1 mg/kg/day orally.
Setting [10] is: L-NAME rats, echocardiographic M-mode.

Where “and” joins values, the source holds several entries; their conditions need not be identical. Identical values can stand only once.

On to `CC(=O)N[C@@H](Cc1ccccc1)C(=O)N[C@H]1CCCNC(=O)[C@H](CCCNC(=N)N)NC(=O)[C@H](Cc2c[nH]c3ccccc23)NC(=O)[C@@H](CC2CCCCC2)NC(=O)[C@@H]2CCCN2C1=O` [PMX53, AcF-[OPdChaWR]], for which the “hydroxyproline levels in the rat lungs” value in test [1] was “significantly reduced”. Besides, in test [2] (listed as Bleo + PMX53), the PR staining was 1.43 % of the total pixel area and 0.06 % of the total pixel area and 0.01 % of the total pixel area and 0.77 % of the total pixel area. For the same compound, the “lung histology (patchy lesions), treated versus non-treated” value in test [3] (7-9 days after bleomycin, H&E, n=4 per group) is recorded as “no significant difference”. Moreover, in test [3] (7-9 days after bleomycin), the “collagen deposition in lung” value is given as “no significant difference”. In addition, the “toxic lung inflammation induced by bleomycin” value in test [3] (acute stage) is reported as “failure”.

On to `Cc1ccc(=O)n(-c2ccccc2)c1` [pirfenidone, 5-methyl-1-phenyl-2-(1H)-pyridone], for which, in test [4], the “cardiac fibrosis and increase in cardiac stiffness” value is “can prevent and partially reverse”.

With `CC(=O)S[C@@H]1CC2=CC(=O)CC[C@]2(C)[C@H]2CC[C@@]3(C)[C@@H](CC[C@@]34CCC(=O)O4)[C@H]12` [spironolactone], in test [4], the “cardiac fibrosis and increase in cardiac stiffness” value is “can prevent and partially reverse”.

AcF-[OPdChaWR] [PMX53]: in test [5] (L-NAME rats), the “glomerular collagen concentrations in the kidneys” value is on record as “normalized”. For the same compound, in test [5] (setting [9]), the “collagen deposition restricted to % of L-NAME only, kidney interstitium” value is recorded as 30%; the “collagen deposition restricted to % of L-NAME only, right ventricle interstitial” value turned out to be 44%; the “collagen deposition restricted to % of L-NAME only, right ventricle perivascular” value came to 37%; the “collagen increase as % of the increase observed in rats treated with L-NAME only, left ventricular interstitial” value is reported as 23%. Also, the “collagen increase as % of the increase observed in rats treated with L-NAME only, left ventricular perivascular” value in test [5] (setting [9]) is 43%. Moreover, the “inflammatory cell infiltration into left or right ventricles” value in test [5] (following L-NAME treatment) is “totally prevented”. Also, the “developed pressure and contractility” value in test [6] (isolated heart) was “without altering”. Further, in test [6] (left ventricle ex vivo), the diastolic stiffness constant result is “prevented”. In addition, in test [7] (L-NAME rats), the “E/A ratio (early to atrial mitral valve inflow rates)” value is “significantly normalised”, the cardiac output entry was “significantly normalised” and the diastolic volume result is on record as “significantly normalised”. Besides, in test [7] (setting [10]), the “left ventricular internal diameter in diastole” value was “normalised” and the “left ventricular wall thickness in diastole” value is recorded as “normalised”. Further, the “any parameter measured by echocardiographic analysis” value in test [7] (control rats) was “did not significantly alter”. Further, in test [8] (L-NAME + antagonist versus L-NAME only), the “increase in systolic blood pressure of L-NAME rats” value is recorded as 16 mmHg. In test [8] (L-NAME rats), the “left ventricular wet weight” value was “increased”. For the same compound, the blood pressure entry in test [8] (control rats) is on record as “non-significant increase”. Moreover, the systolic blood pressure in test [8] (tail-cuff, unanaesthetised rats, day 32, L-NAME rats with or without PMX53 1 mg/kg/day orally) is 176±3 mmHg. Moreover, in test [3], the Body weight is recorded as 228 + 7.583 g, the Left lung weight is on record as 0.974 ± 0.132 g and the “Ratio (lung weight to body weight)” value is 4.25 ± 1.07 ×10^−3.

As to Bleomycin [reference compound], the “hydroxyproline levels in the rat lungs” value in test [1] is “significantly increased”. The PR staining in test [2] was 0.01 % of the total pixel area and 0.21 % of the total pixel area and 0.78 % of the total pixel area and 1.73 % of the total pixel area. In addition, in test [3], the Body weight was 226 + 8.083 g, the Left lung weight amounted to 1.004 ± 0.04 g and the “Ratio (lung weight to body weight)” value is 4.47 ± 0.46 ×10^−3. In addition, in test [3] (18 days after bleomycin instillation), the lung/body weight ratio result is listed as “did not show a significant difference”. The “collagen deposition in lung” value in test [3] (7-9 days after bleomycin) is “significant increase”.
